Consider two sequences from patent US20140031296A1, “NEW SYNTHETIC PEPTIDES AND THEIR USE” (PERGAMUM AB, priority 2011, published 2014).

Test [1] relates to C. albicans (ATCC 64549). Briefly: MMC99 assay, C. albicans. It counts as cell-based. The protocol: (§1) The antimicrobial effects of the peptides 232 (SEQ ID NO: 78), and 220 (SEQ ID NO:67) were analysed by MMC99 (minimal microbicidal concentration) assay against S. aureus (CCUG 1800), MRSA (CCUG 41879), P. aeruginosa (ATCC 15442), E. coli (CCUG 31246), S. pyogenes (CCUG 4207), P. acnes (CCUG 1794T), S. epidermidis (ATCC12228), K. pneumoniae (ATCC 13883), A. baumannii (ATCC 19606), and C. albicans (ATCC 64549). The peptides were purchased from Biopeptide Company (San Diego, Calif., USA) and Bachem AG (Bubendorf, Switzerland) and results are presented in Table 8A and 8B respectively.
(§2) Peptides were serially diluted in two different assay medium, 1% BHI medium (brain-heart infusion medium) or 50% heat inactivated simulated wound fluid (SWF), and thereafter incubated with the microorganisms for 2 hours. Drops of the suspension were placed on blood agar plates. The MMC99 values, i.e. the lowest peptide concentration needed to achieve a 99% reduction of viable microorganisms, were recorded. As presented in Table 8, all the peptides have the ability to kill microorganisms frequently appearing in infections.

Test [2] concerns P. aeruginosa (ATCC 15442). The test is described as follows: MMC99 assay, P. aeruginosa. The class given is cell-based. The protocol: as §1, §2
The subject of test [3] is K. pneumoniae (ATCC 13883). The test is described as follows: MMC99 assay, K. pneumoniae. The class given is cell-based. The protocol: as §1, §2
Test [4] has as its system P. acnes (CCUG 1794T). Briefly: MMC99 assay, P. acnes. It counts as cell-based. The protocol:
as §1, §2

Test [5] concerns E. coli (CCUG 31246). The test is described as follows: MMC99 assay, E. coli. The class given is cell-based. The protocol:
as §1, §2

Test [6] deals with A. baumannii (ATCC 19606). The test is described as follows: MMC99 assay, A. baumannii. It counts as cell-based. The protocol: as §1, §2
Test [7] concerns S. epidermidis (ATCC12228). Briefly: MMC99 assay, S. epidermidis. It counts as cell-based. The protocol: as §1, §2
The subject of test [8] is TNF-α production in LPS stimulated THP-1 cells. Briefly: Inhibition of TNF-α production in LPS stimulated THP-1 cells (ELISA). The class given is cell-based, human. To be noted: screen 2, mean relative secretion, basal = 0%; for TNF-α at 4 μM peptide / TNF-α at 10 μM peptide: stimulated = 100%; for TNF-α at 40 μM peptide: LPS-stimulated level without peptide = 100%.

As for RRLWRRWMRKVL [Peptide 232], the MMC99 is 3 µg/mL in test [1] (1% BHI); 50 µg/mL in test [1] (50% SWF); 5 µg/mL in test [2] (1% BHI); above 176 µg/mL in test [2] (50% SWF); 6 µg/mL in test [3] (1% BHI); above 200 µg/mL in test [3] (50% SWF). Also, the MMC99 in test [4] (1% BHI) was 6 µg/mL; in test [4] (50% SWF), above 200 µg/mL; in test [5] (1% BHI) it was 5 µg/mL; in test [5] (50% SWF) it was above 176 µg/mL; in test [6] (1% BHI) it was 3 µg/mL; in test [6] (50% SWF) it was 200 µg/mL. The MMC99 in test [7] (1% BHI) is 3 µg/mL; in test [7] (50% SWF), 50 µg/mL. Besides, in test [8], the “TNF-α at 4 μM peptide” value came to 96.9%. For the same sequence, in test [8], the “TNF-α at 10 μM peptide” value is recorded as 66.6%. The “TNF-α at 40 μM peptide” value in test [8] is recorded as 33.2%.

In the case of QSLARKLFQWLRNLRKVA [Peptide 220], the MMC99 in test [2] (1% BHI) is 7 µg/mL; in test [2] (50% SWF) it was above 200 µg/mL; in test [4] (1% BHI), below 3 µg/mL; in test [4] (50% SWF), 100 µg/mL; in test [5] (1% BHI) it was 3 µg/mL; in test [5] (50% SWF), above 200 µg/mL. Also, the “TNF-α at 4 μM peptide” value in test [8] is reported as 70.8%. Besides, the “TNF-α at 10 μM peptide” value in test [8] is 37.0%. Further, in test [8], the “TNF-α at 40 μM peptide” value is on record as 11.6%.
